Source: ChEMBL document CHEMBL1137538, “Natural triterpenoids from Cecropia lyratiloba are cytotoxic to both sensitive and multidrug resistant leukemia cell lines” (Bioorg Med Chem, 2007)

What was measured:
[1] = Cytotoxicity against human multidrug resistant Lucena1 cells assessed as cell viability after 48 hrs by MTT assay; type: functional, cell-based; settings: Lucena 1, 48 h
K562 [2] = experiment: Cytotoxicity against human K562 cells assessed as cell viability after 48 hrs by MTT assay; type: functional, cell-based; settings: K562, 48 h
K562 [3] = experiment: Induction of apoptosis in human K562 cells assessed as DNA fragmentation at 50 ug/mL by FACS analysis; type: functional
[4] = Induction of apoptosis in human multidrug resistant Lucena1 cells assessed as DNA fragmentation at 50 ug/mL by FACS analysis; type: functional
Caco-2 = experiment: Cytotoxicity against human Caco-2 cells assessed as cell viability; type: functional, cell-based
[5] = Induction of apoptosis in human multidrug resistant Lucena1 cells assessed as DNA fragmentation at 25 ug/mL by FACS analysis; type: functional
A549 = experiment: Cytotoxicity against human A549 cells assessed as cell viability; type: functional, cell-based
K562 [6] = experiment: Activation of caspase 3 in human K562 cells at 50 ug/mL after 8 hrs by flow cytometry; type: functional
K562 [7] = experiment: Induction of apoptosis in human K562 cells assessed as DNA fragmentation at 25 ug/mL by FACS analysis; type: functional
HEp-2 = experiment: Cytotoxicity against human HEp2 cells assessed as cell viability; type: functional, cell-based
[8] = Induction of apoptosis in human multidrug resistant Lucena1 cells assessed as DNA fragmentation at 10 ug/mL by FACS analysis; type: functional
K562 [9] = experiment: Activation of caspase 3 in human K562 cells at 50 ug/mL after 12 hrs by flow cytometry; type: functional
K562 [10] = experiment: Activation of caspase 3 in human K562 cells at 50 ug/mL after 24 hrs by flow cytometry; type: functional
K562 [11] = experiment: Activation of caspase 3 in human K562 cells at 50 ug/mL after 4 hrs by flow cytometry; type: functional
K562 [12] = experiment: Induction of apoptosis in human K562 cells assessed as DNA fragmentation at 10 ug/mL by FACS analysis; type: functional

## CC[C@]1(O)C[C@H]2CN(CCc3c([nH]c4ccccc34)[C@@](C(=O)OC)(c3cc4c(cc3OC)N(C=O)[C@H]3[C@@](O)(C(=O)OC)[C@H](OC(C)=O)[C@]5(CC)C=CCN6CC[C@]43[C@@H]65)C2)C1 [VINCRISTINE]
[1]
  IC50: > 0.1 µM
K562 [2]
  IC50: 0.006 µM

## CC(=O)O[C@@H]1C[C@]2(C)[C@H]3CC=C4[C@H]5[C@](C(=O)O)(CC[C@@H](C)[C@@]5(C)O)CC[C@@]4(C)[C@]3(C)CC[C@H]2C(C)(C)[C@H]1O
[1]
  IC50: 41.4 µM
K562 [2]
  IC50: 38.4 µM

## C[C@@H]1CC[C@]2(C(=O)O)CC[C@]3(C)C(=CC[C@@H]4[C@@]5(C)C[C@@H](O)[C@@H](O)C(C)(C)[C@@H]5CC[C@]43C)[C@@H]2[C@]1(C)O [EUSCAPHIC ACID]
[1]
  IC50: 83.8 µM
K562 [3]
  Activity: 62.93%
K562 [2]
  IC50: 76.7 µM
[4]
  Activity: 63.57%
Caco-2
  IC50: 104 µM
[5]
  Activity: 30.87%
A549
  IC50: 95.6 µM
K562 [6]
  Activity: 13.87%
K562 [7]
  Activity: 27.75%
HEp-2
  IC50: 106 µM
[8]
  Activity: 10.48%
K562 [9]
  Activity: 18.69%
K562 [10]
  Activity: 36.33%
K562 [11]
  Activity: 8.04%
K562 [12]
  Activity: 13.58%

## C[C@@H]1CC[C@]2(C(=O)O)CC[C@]3(C)C(=CC[C@@H]4[C@@]5(C)C[C@@H](O)[C@H](O)C(C)(C)[C@@H]5CC[C@]43C)[C@@H]2[C@]1(C)O [TOMENTIC ACID]
[1]
  IC50: 80.2 µM
K562 [2]
  IC50: 89.4 µM

## CC(=O)O[C@H]1[C@H](O)C[C@]2(C)[C@H]3CC=C4[C@H]5[C@](C(=O)O)(CC[C@@H](C)[C@@]5(C)O)CC[C@@]4(C)[C@]3(C)CC[C@H]2C1(C)C
[1]
  IC50: 72.9 µM
K562 [2]
  IC50: 56.6 µM
